The source of these data is US7598258B2, “Quinoline derivatives and quinazoline derivatives inhibiting autophosphorylation of macrophage colony stimulating factor receptor” (Kirin Beer Kabushiki Kaisha, priority 2002, dated 2009).

The assay addresses T1, Human KDR (Homo sapiens, UniProt P35968).
T1 construct: expressed in transfected cells; host or cells: NIH3T3 cells (mouse fibroblasts)
The experiment in a line: Inhibition of KDR phosphorylation in human KDR-transfected NIH3T3 cells (ELISA).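 As to Selection ratio (KDR phosphorylation IC50 / c-fms phosphorylation IC50): class 2 means ratio of 10 or more and class 3 means 50 or more.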 The conditions noted are these: for Selection ratio (KDR phosphorylation IC50 / c-fms phosphorylation IC50): class 0-3; for IC50: human KDR-transfected NIH3T3 cells, VEGF 100 ng/ml, ELISA, read-out: KDR phosphorylation 50% inhibitory concentration (IC50). The format is cell-based. The gist of the method:
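NIH3T3 cells transfected with human KDR, in 0.1% FCS medium, treated with compound 1 hr at 37° C, then stimulated with VEGF 100 ng/ml for 2 min. Lysate KDR phosphorylation measured by anti-phosphotyrosine capture/anti-KDR ELISA (A450); IC50 from inhibition normalized between VEGF-stimulated and unstimulated wells.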

T1 sequence (P35968 20-1356): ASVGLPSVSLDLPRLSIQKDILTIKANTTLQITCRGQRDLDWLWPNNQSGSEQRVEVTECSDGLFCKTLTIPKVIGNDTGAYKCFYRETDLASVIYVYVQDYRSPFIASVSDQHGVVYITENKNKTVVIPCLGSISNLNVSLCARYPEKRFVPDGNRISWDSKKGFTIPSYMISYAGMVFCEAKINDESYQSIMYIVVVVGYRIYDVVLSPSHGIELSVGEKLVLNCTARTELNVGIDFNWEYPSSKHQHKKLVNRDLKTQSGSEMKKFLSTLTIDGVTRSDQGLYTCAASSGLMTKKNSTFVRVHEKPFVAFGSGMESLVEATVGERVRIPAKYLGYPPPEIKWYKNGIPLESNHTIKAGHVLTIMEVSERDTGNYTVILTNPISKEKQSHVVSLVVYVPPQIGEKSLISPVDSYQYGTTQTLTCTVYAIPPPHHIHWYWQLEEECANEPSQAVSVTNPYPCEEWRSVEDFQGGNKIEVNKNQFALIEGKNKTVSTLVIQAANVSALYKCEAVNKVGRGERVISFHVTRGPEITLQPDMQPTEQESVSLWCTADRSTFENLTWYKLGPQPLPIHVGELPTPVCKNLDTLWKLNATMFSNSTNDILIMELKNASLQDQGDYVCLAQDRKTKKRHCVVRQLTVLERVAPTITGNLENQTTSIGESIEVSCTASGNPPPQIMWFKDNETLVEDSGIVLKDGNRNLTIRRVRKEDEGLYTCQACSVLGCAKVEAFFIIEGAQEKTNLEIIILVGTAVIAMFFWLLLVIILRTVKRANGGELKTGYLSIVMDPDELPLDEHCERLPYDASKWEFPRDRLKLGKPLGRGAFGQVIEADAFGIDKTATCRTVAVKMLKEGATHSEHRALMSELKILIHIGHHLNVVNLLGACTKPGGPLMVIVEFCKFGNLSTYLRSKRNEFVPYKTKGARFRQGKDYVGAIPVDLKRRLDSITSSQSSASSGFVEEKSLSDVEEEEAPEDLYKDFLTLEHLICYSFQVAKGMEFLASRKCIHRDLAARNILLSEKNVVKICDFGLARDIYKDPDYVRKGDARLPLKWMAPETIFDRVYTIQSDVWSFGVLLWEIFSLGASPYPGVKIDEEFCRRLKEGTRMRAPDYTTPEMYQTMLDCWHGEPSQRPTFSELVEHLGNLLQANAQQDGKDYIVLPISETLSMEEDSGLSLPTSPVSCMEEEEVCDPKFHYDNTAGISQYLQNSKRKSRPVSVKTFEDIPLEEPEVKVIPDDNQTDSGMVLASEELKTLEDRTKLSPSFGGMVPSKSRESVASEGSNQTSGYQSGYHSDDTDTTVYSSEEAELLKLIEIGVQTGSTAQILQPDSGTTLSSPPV

With `COc1cc2nccc(Oc3ccc(NC(=O)NC(C)c4nc(C)cs4)c(F)c3)c2cc1OC` (stereo not shown) [Example 88, N-{4-[(6,7-Dimethoxy-4-quinolyl)oxy]-2-fluorophenyl}-N′-[1-(4-methyl-1,3-thiazol-2-yl)ethyl]urea], the “Selection ratio (KDR phosphorylation IC50 / c-fms phosphorylation IC50)” value is 0 (KDR phosphorylation 50% inhibitory concentration [μM]/c-fms phosphorylation 50% inhibitory concentration [μM] was less than 5) and the IC50 was 8.7 nM.

`COc1cc2nccc(Oc3ccc(NC(=O)N[C@H](C)c4cccc(Br)c4)c(F)c3)c2cc1OC` [Example 63, N-[(1R)-1-(3-Bromophenyl)ethyl]-N′-{4-[(6,7-dimethoxy-4-quinolyl)oxy]-2-fluorophenyl}urea]: the “Selection ratio (KDR phosphorylation IC50 / c-fms phosphorylation IC50)” value is 0 (KDR phosphorylation 50% inhibitory concentration [μM]/c-fms phosphorylation 50% inhibitory concentration [μM] was less than 5) and the IC50 came to 2.6 nM.

On to `COc1cc(Oc2ccnc3cc(OC)c(OC)cc23)ccc1NC(=O)NC(C)c1nc(C)cs1` (stereo not shown) [Example 90, N-{4-[(6,7-Dimethoxy-4-quinolyl)oxy]-2-methoxyphenyl}-N′-[1-(4-methyl-1,3-thiazol-2-yl)ethyl]urea], for which the “Selection ratio (KDR phosphorylation IC50 / c-fms phosphorylation IC50)” value was 2 (when the value was 10 or more) and the IC50 is 111 nM.

As for `COc1cc2nccc(Oc3ccc(NC(=O)NC(C)c4nccs4)cc3F)c2cc1OC` (stereo not shown) [Example 73, N-{4-[(6,7-Dimethoxy-4-quinolyl)oxy]-3-fluorophenyl}-N′-[1-(1,3-thiazol-2-yl)ethyl]urea], the “Selection ratio (KDR phosphorylation IC50 / c-fms phosphorylation IC50)” value is given as 2 (when the value was 10 or more) and the IC50 was 43.3 nM.

In the case of `COc1cc2nccc(Oc3ccc(NC(=O)N[C@H](C)c4nccs4)c(C(F)(F)F)c3)c2cc1OC` [Example 85, N-[4-[(6,7-Dimethoxy-4-quinolyl)oxy]-2-(trifluoromethyl)phenyl]-N′-[(1R)-1-(1,3-thiazol-2-yl)ethyl]urea], the “Selection ratio (KDR phosphorylation IC50 / c-fms phosphorylation IC50)” value is 0 (KDR phosphorylation 50% inhibitory concentration [μM]/c-fms phosphorylation 50% inhibitory concentration [μM] was less than 5) and the IC50 came out at 21.6 nM.

Regarding `COc1cc2nccc(Oc3ccc(NC(=O)N[C@@H](C)c4nccs4)c(C(F)(F)F)c3)c2cc1OC` [Example 84, N-[4-[(6,7-Dimethoxy-4-quinolyl)oxy]-2-(trifluoromethyl)phenyl]-N′-[(1S)-1-(1,3-thiazol-2-yl)ethyl]urea], the “Selection ratio (KDR phosphorylation IC50 / c-fms phosphorylation IC50)” value is on record as 3 (when the value was 50 or more) and the IC50 was determined as 661 nM.

Take `COc1cc2nccc(Oc3cc(C)c(NC(=O)N[C@@H](C)c4ccc(F)cc4)cc3C)c2cc1OC` [Example 8, N-{4-[(6,7-Dimethoxy-4-quinolyl)oxy]-2,5-dimethylphenyl}-N′-[(1S)-1-(4-fluorophenyl)ethyl]urea]: the “Selection ratio (KDR phosphorylation IC50 / c-fms phosphorylation IC50)” value is 2 (when the value was 10 or more) and the IC50 was determined as 390 nM.

With `COc1cc2nccc(Oc3ccc(NC(=O)NC(C)c4nccs4)c(F)c3)c2cc1OC` (stereo not shown) [Example 70, N-{4-[(6,7-Dimethoxy-4-quinolyl)oxy]-2-fluorophenyl}-N′-[1-(1,3-thiazol-2-yl)ethyl]urea], the “Selection ratio (KDR phosphorylation IC50 / c-fms phosphorylation IC50)” value is 2 (when the value was 10 or more) and the IC50 was determined as 55.1 nM.

With `COc1cc2nccc(Oc3cc(C)c(NC(=O)N[C@H](C)c4nccs4)cc3C)c2cc1OC` [Example 87, N-{4-[(6,7-Dimethoxy-4-quinolyl)oxy]-2,5-dimethylphenyl}-N′-[(1R)-1-(1,3-thiazol-2-yl)ethyl]urea], the “Selection ratio (KDR phosphorylation IC50 / c-fms phosphorylation IC50)” value is 2 (when the value was 10 or more) and the IC50 amounted to 273 nM.

With `COc1cc2nccc(Oc3ccc(NC(=O)NC(C)c4ncc(C)s4)cc3F)c2cc1OC` (stereo not shown) [Example 102, N-{4-[(6,7-Dimethoxy-4-quinolyl)oxy]-3-fluorophenyl}-N′-[1-(5-methyl-1,3-thiazol-2-yl)ethyl]urea], the “Selection ratio (KDR phosphorylation IC50 / c-fms phosphorylation IC50)” value was 2 (when the value was 10 or more) and the IC50 was determined as 219 nM.

With `COc1cc2nccc(Oc3ccc(NC(=O)N[C@H](C)c4cccc(Br)c4)c(C(F)(F)F)c3)c2cc1OC` [Example 60, N-[(1R)-1-(3-Bromophenyl)ethyl]-N′-[4-[(6,7-dimethoxy-4-quinolyl)oxy]-2-(trifluoromethyl)phenyl]urea], the “Selection ratio (KDR phosphorylation IC50 / c-fms phosphorylation IC50)” value was 0 (KDR phosphorylation 50% inhibitory concentration [μM]/c-fms phosphorylation 50% inhibitory concentration [μM] was less than 5) and the IC50 worked out at 1.9 nM.

Turning to `COc1cc2nccc(Oc3ccc(NC(=O)NC(C)c4ccc(F)cc4)cc3F)c2cc1OC` (stereo not shown) [Example 31, N-{4-[(6,7-Dimethoxy-4-quinolyl)oxy]-3-fluorophenyl}-N′-[1-(4-fluorophenyl)ethyl]urea], the “Selection ratio (KDR phosphorylation IC50 / c-fms phosphorylation IC50)” value was 0 (KDR phosphorylation 50% inhibitory concentration [μM]/c-fms phosphorylation 50% inhibitory concentration [μM] was less than 5) and the IC50 was 1 nM.

On to `COc1cc2nccc(Oc3ccc(NC(=O)N[C@@H](C)c4ccccc4OC)cc3)c2cc1OC` [Example 51, N-{4-[(6,7-Dimethoxy-4-quinolyl)oxy]phenyl}-N′-[(1S)-1-(2-methoxyphenyl)ethyl]urea], for which the “Selection ratio (KDR phosphorylation IC50 / c-fms phosphorylation IC50)” value is recorded as 1 (when the value was 5 or more) and the IC50 worked out at 38.2 nM.

`COc1cc2nccc(Oc3ccc(NC(=O)N[C@@H](C)c4ccc(F)cc4)c(F)c3)c2cc1OC` [Example 29, N-{4-[(6,7-Dimethoxy-4-quinolyl)oxy]-2-fluorophenyl}-N′-[(1S)-1-(4-fluorophenyl)ethyl]urea]: the “Selection ratio (KDR phosphorylation IC50 / c-fms phosphorylation IC50)” value was 2 (when the value was 10 or more) and the IC50 was 27.3 nM.

`COc1cc2nccc(Oc3ccc(NC(=O)N[C@H](C)c4ccc(F)cc4)c(C)c3)c2cc1OC` [Example 15, N-{4-[(6,7-Dimethoxy-4-quinolyl)oxy]-2-methylphenyl}-N′-[(1R)-1-(4-fluorophenyl)ethyl]urea]: the “Selection ratio (KDR phosphorylation IC50 / c-fms phosphorylation IC50)” value was 0 (KDR phosphorylation 50% inhibitory concentration [μM]/c-fms phosphorylation 50% inhibitory concentration [μM] was less than 5) and the IC50 is under 1 nM.

On to `COc1cc2nccc(Oc3ccc(NC(=O)NC(C)c4nc(C)cs4)c(C(F)(F)F)c3)c2cc1OC` (stereo not shown) [Example 92, N-[4-[(6,7-Dimethoxy-4-quinolyl)oxy]-2-(trifluoromethyl)phenyl]-N′-[1-(4-methyl-1,3-thiazol-2-yl)ethyl]urea], for which the “Selection ratio (KDR phosphorylation IC50 / c-fms phosphorylation IC50)” value is 0 (KDR phosphorylation 50% inhibitory concentration [μM]/c-fms phosphorylation 50% inhibitory concentration [μM] was less than 5) and the IC50 was found to be 4.3 nM.

`COc1cc2nccc(Oc3ccc(NC(=O)N[C@@H](C)c4nccs4)cc3OC)c2cc1OC` [Example 81, N-{4-[(6,7-Dimethoxy-4-quinolyl)oxy]-3-methoxyphenyl}-N′-[(1S)-1-(1,3-thiazol-2-yl)ethyl]urea]: the “Selection ratio (KDR phosphorylation IC50 / c-fms phosphorylation IC50)” value is 3 (when the value was 50 or more) and the IC50 worked out at 1050 nM.

For `COc1cc2nccc(Oc3ccc(NC(=O)N[C@@H](C)c4ccc(F)cc4)c(Cl)c3)c2cc1OC` [Example 5, N-{2-Chloro-4-[(6,7-dimethoxy-4-quinolyl)oxy]phenyl}-N′-[(1S)-1-(4-fluorophenyl)ethyl]urea], the “Selection ratio (KDR phosphorylation IC50 / c-fms phosphorylation IC50)” value is recorded as 1 (when the value was 5 or more) and the IC50 amounted to 21.4 nM.

With `COc1cc2nccc(Oc3ccc(NC(=O)N[C@H](C)c4cccc(Br)c4)cc3Cl)c2cc1OC` [Example 57, N-[(1R)-1-(3-Bromophenyl)ethyl]-N′-{3-chloro-4-[(6,7-dimethoxy-4-quinolyl)oxy]phenyl}urea], the “Selection ratio (KDR phosphorylation IC50 / c-fms phosphorylation IC50)” value was 0 (KDR phosphorylation 50% inhibitory concentration [μM]/c-fms phosphorylation 50% inhibitory concentration [μM] was less than 5) and the IC50 worked out at 3.6 nM.

Turning to `COc1cc2nccc(Oc3ccc(NC(=O)N[C@H](C)c4ccc(F)cc4)cc3Cl)c2cc1OC` [Example 12, N-{3-Chloro-4-[(6,7-dimethoxy-4-quinolyl)oxy]phenyl}-N′-[(1R)-1-(4-fluorophenyl)ethyl]urea], the “Selection ratio (KDR phosphorylation IC50 / c-fms phosphorylation IC50)” value is 0 (KDR phosphorylation 50% inhibitory concentration [μM]/c-fms phosphorylation 50% inhibitory concentration [μM] was less than 5) and the IC50 stood at 2.8 nM.

For `COc1ccc([C@@H](C)NC(=O)Nc2ccc(Oc3ccnc4cc(OC)c(OC)cc34)cc2)cc1` [Example 54, N-{4-[(6,7-Dimethoxy-4-quinolyl)oxy]phenyl}-N′-[(1R)-1-(4-methoxyphenyl)ethyl]urea], the “Selection ratio (KDR phosphorylation IC50 / c-fms phosphorylation IC50)” value is reported as 1 (when the value was 5 or more) and the IC50 worked out at 574 nM.

Turning to `COc1cc2nccc(Oc3ccc(NC(=O)NC(C)c4ncc(C)s4)cc3)c2cc1OC` (stereo not shown) [Example 100, N-{4-[(6,7-Dimethoxy-4-quinolyl)oxy]phenyl}-N′-[1-(5-methyl-1,3-thiazol-2-yl)ethyl]urea], the “Selection ratio (KDR phosphorylation IC50 / c-fms phosphorylation IC50)” value was 2 (when the value was 10 or more) and the IC50 was 311 nM.

For the molecule `COc1cc2nccc(Oc3ccc(NC(=O)NC(C)c4ccc(F)cc4)c(C(F)(F)F)c3)c2cc1OC` (stereo not shown) [Example 19, N-[4-[(6,7-Dimethoxy-4-quinolyl)oxy]-2-(trifluoromethyl)phenyl]-N′-[1-(4-fluorophenyl)ethyl]urea], the “Selection ratio (KDR phosphorylation IC50 / c-fms phosphorylation IC50)” value was 0 (KDR phosphorylation 50% inhibitory concentration [μM]/c-fms phosphorylation 50% inhibitory concentration [μM] was less than 5) and the IC50 was 1.5 nM.
